From patent publication US12344611B2, “Bridged cycloformylpyridine derivatives and uses thereof” (BroadenBio Co., Ltd., priority 2019, dated 2025) come the findings set out here.

One assay relates to HuH-7 hepatoma cells. Briefly: In vitro cell proliferation assay (CellTiter-Glo, CTG), HuH-7. Format: cell-based. To be noted: HuH-7 cells. The protocol:
(§1) In Vitro Cell Proliferation Assay of FGFR4 (CellTiter-Glo Luminescent Cell Viability Assay, CTG Assay)
(§2) Hep 3B hepatoma cells were purchased from Cell Resource Center of Peking Union College, and HuH-7 hepatoma cells were purchased from Shanghai Biological Technology Co., Ltd. enzyme research. The cells were prepared at a concentration of 3×10^4/mL, which was then added with 100 μL to each well of a 96-well transparent flat-bottom black-walled plate to make 3000 cells per well. Incubate overnight at 37° C. in 5% CO2 incubator. Dilute a compound and add it to the wells having the cells, then add cell culture medium to 200 μL per well. Put in CO2 incubator for incubation. After 96 hours, 100 μL of culture medium was removed from each well, 100 μL of CTG was added, and the 96-well plate was placed on a shaker for 10 minutes, and placed in the shade at room temperature for 45 minutes. Data was read out by SoftMax Pro i3X Microplate Reader of MD, analyzed by the software GraphPad Prism 5.0, and S-shaped dose-response curve was drawn, then the EC50 values were calculated.

The next assay deals with Hep 3B hepatoma cells. Description: In vitro cell proliferation assay (CellTiter-Glo, CTG), Hep 3B. To be noted: Hep 3B cells. Format: cell-based, human. The protocol: as §1, §2
On the technique in general: ATP-based viability assays read luminescence as a measure of living cells.

In another assay the target is FGFR4 (Homo sapiens, UniProt P22455). Briefly: In vitro biochemical kinase analysis of FGFR4 (HTRF KinEASE-TK). To be noted: HTRF kinase assay. The protocol: In Vitro Biochemical Kinase Analysis of FGFR4
FGFR4 protein kinase detection kit was purchased from Cisbio (HTRF KinEASE-TK kit). Prepare 1× kinase reaction buffer. Transfer 10 nL of a diluted compound to each well of a reaction plate (784075, Greiner) with an Echo 550, and seal the plate with sealing film. The reaction plate was centrifuged at 1000 g for 1 minute. Prepare 2×FGFR4 using 1× kinase reaction buffer, add 5 μL of kinase to each well of the reaction plate, seal the plate, centrifuge at 1000 g for 30 seconds, and incubate it at room temperature for 10 minutes. Prepare a mixture of 2×TK-substrate-biotin and ATP using 1× kinase reaction buffer, add 5 μL of TK-substrate-biotin/ATP mixture to the reaction plate, seal the plate with sealing film, centrifuge at 1000 g for 30 seconds, and react at room temperature for 40 minutes. Prepare 2×Sa-XL 665 and TK-antibody-Cryptate mixture using HTRF detection buffer, add 10 μL Sa-XL 665 and TK-antibody-Cryptate mixture to each well, centrifuge at 1000 g for 30 seconds, and react at room temperature for 1 hour. Envision 2104 read fluorescence signals at 615 nm (Cryptate) and at 665 nm (XL665). IC50 of the compound was calculated using the GraphPad nonlinear fitting formula.
For orientation: In TR-FRET formats the signal depends on donor and acceptor labels being close together.

FGFR4, sequence (P22455 22-802): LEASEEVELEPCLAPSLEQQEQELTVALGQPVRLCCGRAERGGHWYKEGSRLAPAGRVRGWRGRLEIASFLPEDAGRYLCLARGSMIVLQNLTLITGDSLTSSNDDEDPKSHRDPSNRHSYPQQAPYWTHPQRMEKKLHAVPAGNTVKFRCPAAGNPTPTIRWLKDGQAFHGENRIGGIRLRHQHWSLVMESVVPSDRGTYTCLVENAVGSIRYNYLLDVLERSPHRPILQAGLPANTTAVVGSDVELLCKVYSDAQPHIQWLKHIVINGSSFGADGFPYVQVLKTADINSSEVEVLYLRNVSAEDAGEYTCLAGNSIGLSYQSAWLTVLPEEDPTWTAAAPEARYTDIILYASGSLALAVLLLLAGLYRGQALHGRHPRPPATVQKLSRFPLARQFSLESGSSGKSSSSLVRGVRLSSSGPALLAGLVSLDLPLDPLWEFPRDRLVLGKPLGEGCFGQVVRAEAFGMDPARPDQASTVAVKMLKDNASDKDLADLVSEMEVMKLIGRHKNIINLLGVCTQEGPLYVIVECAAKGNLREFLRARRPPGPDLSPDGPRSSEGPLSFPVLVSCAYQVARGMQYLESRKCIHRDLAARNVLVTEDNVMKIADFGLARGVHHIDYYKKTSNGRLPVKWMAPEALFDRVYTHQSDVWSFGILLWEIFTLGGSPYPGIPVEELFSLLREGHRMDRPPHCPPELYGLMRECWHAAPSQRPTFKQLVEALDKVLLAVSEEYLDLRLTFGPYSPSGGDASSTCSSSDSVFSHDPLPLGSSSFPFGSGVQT

With `COCCNc1cc(NC(=O)N2c3nc(C=O)c(CN4CCN(C)CC4=O)cc3C3(O)CC2C3)ncc1C#N` [Compound 5, N-(5-cyano-4-((2-methoxyethyl)amino)pyridin-2-yl)-7-formyl-4-hydroxy-6-((4-methyl-2-oxopiperazin-1-yl)methyl)-3,4-dihydro-2,4-methylene-1,8-naphthyridine-1(2H)-carboxamide], the half-maximal effective concentration (EC50) in the assay on HuH-7 hepatoma cells (Homo sapiens, Huh-7, 96 h) is 49 nM; in the assay with Hep 3B hepatoma cells (Homo sapiens, Hep3B, 96 h), 27 nM. The same compound returned an IC50 on FGFR4 of 1.8 nM.

Turning to `COCCNc1cc(NC(=O)N2c3nc(C=O)c(CN4CCOCC4=O)cc3C3(F)CC2C3)ncc1C#N` [Compound 13], the EC50 in the assay with HuH-7 hepatoma cells (Homo sapiens, Huh-7, 96 h) came to 74 nM; in the assay with Hep 3B hepatoma cells (Homo sapiens, Hep3B, 96 h), 12.6 nM. Also, on FGFR4, the IC50 was 6.9 nM.

Take `COCCOc1cc(NC(=O)N2c3nc(C=O)c(CN4CCN(C)CC4=O)cc3C3(F)CC2C3)ncc1C#N` [Compound 9]: the EC50 in the assay with HuH-7 hepatoma cells (Homo sapiens, Huh-7, 96 h) turned out to be 71 nM; in the assay with Hep 3B hepatoma cells (Homo sapiens, Hep3B, 96 h) it was 58 nM. This compound also had a concentration for half-maximal inhibition (IC50) on FGFR4 of 4.9 nM.

In the case of `COCCNc1cc(NC(=O)N2c3nc(C=O)ccc3C3(OCCN4CCOCC4)CC2C3)ncc1C#N` [Compound 39], the 50% effective concentration (EC50) was 10 nM with HuH-7 hepatoma cells (Homo sapiens, Huh-7, 96 h) and 7.8 nM in the assay on Hep 3B hepatoma cells (Homo sapiens, Hep3B, 96 h). The compound also returned a half-maximal inhibitory concentration (IC50) at FGFR4 of 1.6 nM.

`CO[C@@H]1CCC[C@H]1Nc1cc(NC(=O)N2c3nc(C=O)ccc3C3(NC(=O)CN(C)C)CC2C3)ncc1C#N` (relative stereo) [Compound 33, N-(5-cyano-4-(((trans)-2-methoxycyclopentyl)amino)pyridin-2-yl)-4-(2-(dimethylamino)acetamido)-7-formyl-3,4-dihydro-2,4-methylene-1,8-naphthyridine-1(2H)-carboxamide]: the half-maximal effective concentration (EC50) in the assay with HuH-7 hepatoma cells (Homo sapiens, Huh-7, 96 h) was determined as 0.08 nM; in the assay with Hep 3B hepatoma cells (Homo sapiens, Hep3B, 96 h) it was 0.3 nM. Moreover, at FGFR4, the half-inhibitory concentration (IC50) came out at 0.3 nM.

Turning to `COCCNc1cc(NC(=O)N2c3nc(C=O)ccc3C3(NC(=O)c4cnn(C)c4)CC2C3)ncc1C#N` [Compound 32, N-(5-cyano-4-((2-methoxyethyl)amino)pyridin-2-yl)-4-(1-methyl-1H-pyrazole-4-carboxamido)-7-formyl-3,4-dihydro-2,4-methylene-1,8-naphthyridine-1(2H)-carboxamide], the EC50 in the assay on HuH-7 hepatoma cells (Homo sapiens, Huh-7, 96 h) stood at 0.7 nM; in the assay with Hep 3B hepatoma cells (Homo sapiens, Hep3B, 96 h) it was 1.7 nM. In addition, the IC50 on FGFR4 turned out to be 0.5 nM.

On to `COCCNc1cc(NC(=O)N2c3nc(C=O)ccc3C3(NC(=O)CN4CCCC4)CC2C3)ncc1C#N` [Compound 41], for which the concentration for a half-maximal effect (EC50) in the assay with HuH-7 hepatoma cells (Homo sapiens, Huh-7, 96 h) worked out at 13.3 nM; in the assay with Hep 3B hepatoma cells (Homo sapiens, Hep3B, 96 h) it was 11.9 nM. For the same compound, on FGFR4, the IC50 stood at 3.4 nM.

For `COC1CCCC1Nc1cc(NC(=O)N2c3nc(C=O)c(CN4CCN(C)CC4=O)cc3C3(F)CC2C3)ncc1C#N` (single isomer, unassigned) [Compound 11-P2, N-(5-cyano-4-(((trans)-2-methoxycyclopentyl)amino)pyridin-2-yl)-4-fluoro-7-formyl-64(4-methyl-2-oxopiperazin-1-yl)methyl)-3,4-dihydro-2,4-methylene-1,8-naphthyridine-1(2H)-carboxamide], the concentration giving a half-maximal response (EC50) in the assay with HuH-7 hepatoma cells (96 hours) is 73.1 nM; in the assay with Hep 3B hepatoma cells (96 hours), 32.1 nM. In addition, the IC50 at FGFR4 worked out at 9.8 nM.

Take `COCCNc1cc(NC(=O)N2c3nc(C=O)c(CN4CCN(C)CC4=O)cc3C3CC2C3)ncc1C#N` [Compound 18, N-(5-cyano-4-((2-methoxyethyl)amino)pyridin-2-yl)-7-formyl-6-((4-methyl-2-oxopiperazin-1-yl)methyl)-3,4-dihydro-2,4-methylene-1,8-naphthyridine-1(2H)-carboxamide]: the EC50 in the assay with HuH-7 hepatoma cells (Homo sapiens, Huh-7, 96 h) is 15.1 nM; with Hep 3B hepatoma cells (Homo sapiens, Hep3B, 96 h), 5.6 nM. This compound displayed an IC50 on FGFR4 of 2.5 nM.

As for `COCCNc1cc(NC(=O)N2c3nc(C=O)ccc3C3(OCCN(C)C)CC2C3)ncc1C#N` [Compound 29, N-(5-cyano-4-((2-methoxyethyl)amino)pyridin-2-yl)-4-(2-(dimethylamino)ethoxy)-7-formyl-3,4-dihydro-2,4-methylene-1,8-naphthyridine-1(2H)-carboxamide], the half-maximal effective concentration (EC50) was 0.2 nM in the assay with HuH-7 hepatoma cells (Homo sapiens, Huh-7, 96 h) and 1.2 nM with Hep 3B hepatoma cells (Homo sapiens, Hep3B, 96 h). On FGFR4, the midpoint of inhibition, the IC50, lay at 1.1 nM.

Regarding `COCCNc1cc(NC(=O)N2c3nc(C=O)ccc3C3(OCCOC)CC2C3)ncc1C#N` [Compound 36, N-(5-cyano-4-((2-methoxyethyl)amino)pyridin-2-yl)-4-(2-methoxyethoxy)-7-formyl-3,4-dihydro-2,4-methylene-1,8-naphthyridine-1(2H)-carboxamide], the half-maximal effective concentration (EC50) stood at 11.8 nM in the assay on HuH-7 hepatoma cells (Homo sapiens, Huh-7, 96 h) and 8.5 nM in the assay with Hep 3B hepatoma cells (Homo sapiens, Hep3B, 96 h). This compound also showed a concentration for half-maximal inhibition (IC50) against FGFR4 of 2.5 nM.

Turning to `COCCOc1cc(NC(=O)N2c3nc(C=O)c(CN4CCN(C)CC4=O)cc3C3CC2C3)ncc1C#N` [Compound 25, N-(5-cyano-4-(methoxyethoxy)pyridin-2-yl)-7-formyl-6-((4-methyl-2-oxopiperazin-1-yl)methyl)-3,4-dihydro-2,4-methylene-1,8-naphthyridine-1(2H)-carboxamide], the concentration for a half-maximal effect (EC50) in the assay with HuH-7 hepatoma cells (Homo sapiens, Huh-7, 96 h) came to 25.4 nM; with Hep 3B hepatoma cells (Homo sapiens, Hep3B, 96 h), 19.3 nM. Half-maximal inhibition on FGFR4 (IC50) was put at 2.5 nM.

On to `N#Cc1cnc(NC(=O)N2c3nc(C=O)ccc3C3(F)CC2C3)cc1N[C@@H]1CCC[C@H]1O` (relative stereo) [Compound 20, N-(5-cyano-4-(((trans)-2-hydroxycyclopentyl)amino)pyridin-2-yl)-4-fluoro-7-formyl-3,4-dihydro-2,4-methylene-1,8-naphthyridine-1(2H)-carboxamide], for which the EC50 was found to be 24 nM with HuH-7 hepatoma cells (Homo sapiens, Huh-7, 96 h) and 1.2 nM in the assay on Hep 3B hepatoma cells (Homo sapiens, Hep3B, 96 h). On FGFR4, this compound returned a half-inhibitory concentration (IC50) of 0.6 nM.

For `CN1CCN(Cc2cc3c(nc2C=O)N(C(=O)Nc2ccc(C(F)(F)F)cn2)C2CC3(F)C2)C(=O)C1` [Compound 16, N-(5-(trifluoromethyl)pyridin-2-yl)-4-fluoro-7-formyl-6-((4-methyl-2-oxopiperazin-1-yl)methyl)-3,4-dihydro-2,4-methylene-1,8-naphthyridine-1(2H)-carboxamide], the concentration giving a half-maximal response (EC50) in the assay with HuH-7 hepatoma cells (Homo sapiens, Huh-7, 96 h) is greater than 1000 nM; in the assay on Hep 3B hepatoma cells (Homo sapiens, Hep3B, 96 h), 638 nM. The compound further yielded an IC50 against FGFR4 of 23.2 nM.

For `CCc1cc2c(nc1C=O)N(C(=O)Nc1cc(NCCOC)c(C#N)cn1)C1CC2(F)C1` [Compound 21], the EC50 in the assay on HuH-7 hepatoma cells (Homo sapiens, Huh-7, 96 h) is 28.4 nM; in the assay on Hep 3B hepatoma cells (Homo sapiens, Hep3B, 96 h), 15.8 nM. This compound gave an IC50 against FGFR4 of 2.1 nM.

`COCCNc1cc(NC(=O)N2c3nc(C=O)ccc3C3(NC(=O)CN(C)C)CC2C3)ncc1C#N` [Compound 30, N-(5-cyano-4-((2-methoxyethyl)amino)pyridin-2-yl)-4-(2-(dimethylamino)acetamido)-7-formyl-3,4-dihydro-2,4-methylene-1,8-naphthyridine-1(2H)-carboxamide]: a half-maximal response in the assay with HuH-7 hepatoma cells (Homo sapiens, Huh-7, 96 h) (EC50) required 0.8 nM. Moreover, at FGFR4, half-maximal inhibition (IC50) required 1.4 nM.

In the case of `CN1CCN(Cc2cc3c(nc2C=O)N(C(=O)Nc2cc(NC4CCCC4O)c(C#N)cn2)C2CC3(F)C2)C(=O)C1` (stereo not drawn) [Compound 17, N-(5-cyano-4-(((trans)-2-hydroxycyclopentyl)amino)pyridin-2-yl)-4-fluoro-7-formyl-6-((4-methyl-2-oxopiperazin-1-yl)methyl)-3,4-dihydro-2,4-methylene-1,8-naphthyridine-1(21-1)-carboxamide], the EC50 in the assay with HuH-7 hepatoma cells (Homo sapiens, Huh-7, 96 h) was 0.6 nM. For the same compound, the 50% inhibitory concentration (IC50) against FGFR4 amounted to 0.7 nM.

With `COCCNc1cc(NC(=O)N2CCCc3cc(CN4CCN(C)CC4=O)c(C=O)nc32)ncc1C#N` [Positive Control Compound, N-(5-cyano-4-((2-methoxyethyl)amino)pyridin-2-yl)-7-formyl-6-((4-methyl-2-oxopiperazin-1-yl)methyl)-3,4-dihydro-1,8-naphthyridine-1(2H)-carboxamide, reference compound], the EC50 in the assay on HuH-7 hepatoma cells (Homo sapiens, Huh-7, 96 h) was 52 nM; in the assay with Hep 3B hepatoma cells (Homo sapiens, Hep3B, 96 h), 15 nM.

The term EC50 denotes the midpoint of the concentration-response curve. The IC50 is the concentration needed to halve the response being measured. Low readings indicate greater potency, high ones weaker potency.
